Where two headings read alike, the source gives them in different places.
How the values were obtained:
Type in all cases: cell-based
[1] = test system: bone marrow derived mast cells (BMMC); test: BMMC high cell density IgE activation: degranulation (hexosiminidase, histamine), leukotriene (LTC4) and cytokine (TNFalpha, IL-6) assays; conditions: Mus musculus, anti-IgE activation
Description: After sensitizing, cells are counted, pelleted (1000 rpm, 5-10 minutes), and resuspended at 1-3×10^6 cells/ml in MT buffer. Add 100 ul of cell suspension to each well and 100 ul of compound dilutions. The final vehicle concentration is 0.5% DMSO. Incubate at 37° C. (5% CO2) for 1 hour. After 1 hour of compound treatment, stimulate cells with 6× stimulus (60 ng/ml DNP-BSA). Mix wells with the cells and allow plates to incubate at 37° C. (5% CO2) for one hour. After 1 hour incubation, pellet cells (10 minutes, 1000 RPM) and collect 200 ul per well of the supernatant, being careful not to disturb pellet, and transfer to a clean tube or 96-well plate. Place the supernatant plate on ice. During the 4-5 hour step (see next) perform the hexosiminidase assay. Resuspend cell pellet in 240 ul WEI-conditioned media containing 0.5% DMSO and corresponding concentration of compound. Incubate BMMC cells for 4-5 hours at 37° C. (5% CO2). After incubation, pellet cells (1000 RPM, 10 minutes) and collect 225 ul per well and place in −80° C. until ready to perform ELISAS. ELISAS are performed on appropriately diluted samples (determined empirically for each donor cell population so that the sample measurement falls within the standard curve) following the supplier's instructions.
Add 50 uL of BMMC cell supernatant (see above) to the hexoseaminidase substrate, place at 37° C. for 30 minutes and read the plate at 5, 10, 15, and 30 minutes on a spectrophotometer.

[2] = test system: ionophore-induced degranulation of mast and/or basophil cells; test: Ionophore (ionomycin or A23187)-induced degranulation counter screen; conditions: high density BMMC, ionomycin activation, hexosaminidase release, read-out: BMMC Ionomycin Hexos. IC50
Source text: In addition to the FcεRI or FcγRI degranulation pathways discussed above, degranulation of mast and/or basophil cells can be induced by other agents. For example, ionomycin, a calcium ionophore that bypasses the early FcεRI or FcγRI signal transduction machinery of the cell, directly induces a calcium flux that triggers degranulation. Referring again to FIG. 2, activated PLCγ initiates pathways that lead to, among other things, calcium ion mobilization and subsequent degranulation. As illustrated, this Ca^2+ mobilization is triggered late in the FcεRI signal transduction pathway. […] Other ionophores that induce degranulation in this manner include A23187. The ability of granulation-inducing ionophores such as ionomycin to bypass the early stages of the FcεRI and/or FcγRI signaling cascades may be used as a counter screen to identify active compounds of the invention that specifically exert their degranulation-inhibitory activity by blocking or inhibiting the early FcεRI or FcγRI signaling cascades, as discussed above.
Assays suitable for determining the IC50 of ionophore-induced degranulation include any of the previously-described degranulation assays, with the modification that the cells are stimulated or activated with a degranulation-inducing calcium ionophore such as ionomycin or A23187 (A.G. Scientific, San Diego, Calif.) instead of anti-IgE antibodies or an IgE-specific allergen. Specific assays for assessing the ability of a particular 2,4-pyrimidinediamine compound of the invention to inhibit ionophore-induced degranulation are provided in the Examples section.

[3] = test system: cultured human mast cells (CHMC); test: CHMC low cell density IgE activation: tryptase and LTC4 assays; conditions: Homo sapiens, Mast cell, Low Density CHMC, anti-IgE activation
How it was run: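 Cultured human mast cells at low density (1000-1500 per well) rested 1 h at 37° C, then stimulated with anti-IgE for 30 min at 37° C. Supernatant tryptase measured with fluorogenic substrate (30 min, room temperature); LTC4 quantified by ELISA on diluted supernatant.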

[4] = test system: cultured human mast cells (CHMC); test: CHMC low cell density ionomycin activation: tryptase assay; conditions: Homo sapiens, Mast cell, Low Density CHMC, ionomycin activation
[5] = IL-6 release, read-out: BMMC anti-IgE IL-6 IC50
[6] = LTC4 release, read-out: BMMC anti-IgE LTC4 IC50
[7] = TNF-alpha release, read-out: BMMC anti-IgE TNF-alpha IC50
[8] = hexosaminidase release, read-out: BMMC anti-IgE hexos IC50
[9] = histamine release, read-out: BMMC anti-IgE histamine IC50
[10] = hexosaminidase readout, read-out: CHMC anti-IgE Hexos.
[11] = hexosaminidase readout, read-out: CHMC Ionomycin Hexos.
[12] = tryptase readout, read-out: CHMC Ionomycin Tryptase
[13] = tryptase readout, read-out: CHMC anti-IgE Tryptase

Row | IC50 [1, 8] [µM] | IC50 [3, 10] [µM] | SMILES | IC50 ([2]; Mus musculus) [µM] | further results
1 | < 0.22 |  | O=C1COc2ccc(Nc3ncc(F)c(Nc4cccc(O)c4)n3)cc2N1 [Compound R909238, N2-(1,4-Benzoxazin-3-on-6-yl)-5-fluoro-N4-(3-hydroxyphenyl)-2,4-pyrimidinediamine] |  | IC50 [1, 5]: < 0.22 µM; IC50 [1, 6]: 0.521 µM; IC50 [1, 7]: 0.432 µM; IC50 [1, 9]: < 0.22 µM
2 | 5.9 | 6.2 | CCOc1cccc(Nc2ncc(F)c(Nc3cccc(OCC)c3)n2)c1 [Compound R926064, N2,N4-Bis(3-ethoxyphenyl)-5-fluoro-2,4-pyrimidinediamine] | 7.3 | 
3 | > 10 | 3.5 | COc1cccc(Nc2ncc(F)c(Nc3cccc(OC)c3)n2)c1 [Compound R926065, N2,N4-Bis(3-methoxyphenyl)-5-fluoro-2,4-pyrimidinediamine] | > 10 | 
4 | 7.4 | > 10 | CCOc1ccc(Nc2ncc(C)c(Nc3ccc(OCC)cc3)n2)cc1 [Compound R926068, N2,N4-Bis(4-ethoxyphenyl)-5-methyl-2,4-pyrimidinediamine] | 8.2 | 
5 | 4.5 | 9.1 | CCOc1ccc(Nc2ccnc(Nc3ccc(OCC)cc3)n2)cc1 [Compound R926069, N2,N4-Bis(4-ethoxyphenyl)-2,4-pyrimidinediamine] | 4.4 | 
6 | > 10 | > 10 | CCOc1ccc(Nc2cc(Cl)nc(Nc3ccc(OCC)cc3)n2)cc1 [Compound R926072, N2,N4-Bis(4-ethoxyphenyl)-6-chloro-2,4-pyrimidinediamine] | > 10 | 
7 |  |  | Fc1cnc(Nc2ccc(N3CCOCC3)cc2)nc1Nc1ccc(N2CCOCC2)cc1 [Compound R926114, N2,N4-Bis[4-(N-morpholino)phenyl]-5-fluoro-2,4-pyrimidinediamine] |  | IC50 [2]: > 10 µM
8 | 2.4 | 4.76 | CCOc1ccc(Nc2ncc(F)c(Nc3ccc(OC)c(OC)c3)n2)cc1 [Compound R926145, N4-(3,4-Dimethoxyphenyl)-N2-(4-ethoxyphenyl)-5-fluoro-2,4-pyrimidinediamine] | 8.8 | IC50 [4, 11]: > 10 µM
9 | 2 | 1.9 | COc1ccc(Nc2nc(Nc3cccc(O)c3)ncc2F)cc1OC [Compound R926147, N4-(3,4-Dimethoxyphenyl)-5-fluoro-N2-(3-hydroxyphenyl)-2,4-pyrimidinediamine] | 7.1 | IC50 [4, 11]: > 10 µM
10 | > 10 | > 10 | Fc1ccc(Nc2ncc(F)c(Nc3ccc4c(c3)OCCO4)n2)cc1Cl [Compound R926218, N2-(3-Chloro-4-fluorophenyl)-N4-(3,4-ethylenedioxyphenyl)-5-fluoro-2,4-pyrimidinediamine] | > 10 | 
11 | 2.5 | 1.1 | CC(C)(C)c1ccc(Nc2ncc(F)c(Nc3ccc4c(c3)OCCO4)n2)cc1 [Compound R926219, N2-(4-tert-Butylphenyl)-N4-(3,4-ethylenedioxyphenyl)-5-fluoro-2,4-pyrimidinediamine] | 3.2 | IC50 [4, 11]: 6.7 µM
12 | > 10 | > 10 | Fc1ccc(Nc2ncc(F)c(Nc3ccc4c(c3)OCCO4)n2)cc1 [Compound R926220, N4-(3,4-Ethylenedioxyphenyl)-N2-(4-fluorophenyl)-5-fluoro-2,4-pyrimidinediamine] | > 10 | 
13 | 9.9 | 8.5 | Fc1cccc(Nc2ncc(F)c(Nc3ccc4c(c3)OCCO4)n2)c1 [Compound R926221, N4-(3,4-Ethylenedioxyphenyl)-N2-(3-fluorophenyl)-5-fluoro-2,4-pyrimidinediamine] | > 10 | 
14 | > 10 | > 10 | CC(C)(C)c1ccc(Nc2ncc(F)c(Nc3ccc(C(C)(C)C)cc3)n2)cc1 [Compound R926222, N2,N4-Bis(4-tert-butylphenyl)-5-fluoro-2,4-pyrimidinediamine] | > 10 | 
15 | > 10 | > 10 | Fc1ccc(Nc2ncc(F)c(Nc3ccc(F)c(Cl)c3)n2)cc1Cl [Compound R926223, N2,N4-Bis(3-chloro-4-fluorophenyl)-5-fluoro-2,4-pyrimidinediamine] | > 10 | 
16 | > 10 | > 10 | Fc1ccc(Nc2ncc(F)c(Nc3ccc(F)cc3)n2)cc1 [Compound R926224, N2,N4-Bis(4-fluorophenyl)-5-fluoro-2,4-pyrimidinediamine] | > 10 | 
17 | > 10 | > 10 | Cc1ccc(Nc2ncc(F)c(Nc3ccc(C)cc3)n2)cc1 [Compound R926225, N2,N4-Bis(4-methylphenyl)-5-fluoro-2,4-pyrimidinediamine] | > 10 | 
18 | > 10 | > 10 | CCOC(=O)c1cccc(Nc2ncc(F)c(Nc3cccc(C(=O)OCC)c3)n2)c1 [Compound R926228, N2,N4-Bis(3-ethoxycarbonylphenyl)-5-fluoro-2,4-pyrimidinediamine] |  | 
19 | > 10 | > 10 | CCc1ccc(Nc2ncc(F)c(Nc3ccc(CC)cc3)n2)cc1 [Compound R926234, N2,N4-Bis(4-ethylphenyl)-5-fluoro-2,4-pyrimidinediamine] |  | 
20 | 1.9 |  | CCc1ccc(Nc2ncc(F)c(Nc3ccc4c(c3)OCCO4)n2)cc1 [Compound R926237, N4-(3,4-Ethylenedioxyphenyl)-N2-(4-ethylphenyl)-5-fluoro-2,4-pyrimidinediamine] |  | IC50 [4, 12]: 6.2 µM; IC50 [3, 13]: 1.21 µM
21 | < 0.22 |  | O=C(NCCO)c1cc2cc(Nc3ncc(F)c(Nc4ccc5c(c4)OCCO5)n3)ccc2o1 [Compound R926498, N4-(3,4-Ethylenedioxyphenyl)-5-fluoro-N2-[2-(N-2-hydroxyethylamino)carbonylbenzofuran-5-yl]-2,4-pyrimidinediamine] |  | IC50 [4, 12]: > 10 µM; IC50 [3, 13]: 0.209 µM; IC50 [1, 5]: < 0.22 µM; IC50 [1, 6]: 0.995 µM; IC50 [1, 7]: 0.614 µM; IC50 [1, 9]: 0.515 µM
22 | < 0.056 |  | OCc1cc2cc(Nc3ncc(F)c(Nc4cccc(O)c4)n3)ccc2o1 [Compound R926707, 5-Fluoro-N2-[2-(hydroxymethyl)benzofuran-5-yl]-N4-(3-hydroxyphenyl)-2,4-pyrimidinediamine] |  | IC50 [4, 12]: > 10 µM; IC50 [3, 13]: 0.214 µM; IC50 [1, 5]: < 0.056 µM; IC50 [1, 6]: 0.39 µM; IC50 [1, 7]: 0.088 µM; IC50 [1, 9]: < 0.056 µM
23 | < 0.22 |  | CC(C)Oc1ccc(Nc2nc(Nc3ccc(OCCO)cc3)ncc2F)cc1 [Compound R935160, 5-Fluoro-N2-[4-(2-hydroxyethoxy)phenyl]-N4-(4-isopropoxyphenyl)-2,4-pyrimidinediamine] |  | IC50 [4, 12]: > 10 µM; IC50 [3, 13]: 0.202 µM; IC50 [1, 5]: < 0.22 µM; IC50 [1, 6]: 0.876 µM; IC50 [1, 7]: 0.484 µM; IC50 [1, 9]: 0.317 µM

Reference: US10828301B2, “2,4-pyrimidinediamine compounds and their uses” (Rigel Pharmaceuticals, Inc, priority 2002, dated 2020)
